Measurements taken from patent US20100022600A1, “METHODS AND COMPOSITIONS FOR TREATING CENTRAL NERVOUS SYSTEM TUMORS” (priority 2006, published 2010).

Columns and labels:
human glioma cells A172 = test: MTT viability assay, human A172 glioma cells; type: cell-based; conditions: 30 μM pio; 3, 5 and 7 d
Method: Rat C6 glioma cells were grown in DMEM and human glioma cells (U87, A172) in RPMI, supplemented with 10% (v/v) fetal calf serum, 100 U/mL penicillin and 100 U/mL streptomycin in a 5% CO2 atmosphere. Primary astrocyte cultures were prepared as described previously (J Neurosci 1998; 18: 4451-60) and grown in DMEM, supplemented with 2.5% (v/v) fetal calf serum, 100 U/mL penicillin and 100 U/mL streptomycin in a 5% CO2 atmosphere. […] Experiments were performed in triplicate.

[1] = Clinical assessment of neurological deficits in C6 rat glioma model; type: in vivo; conditions: intracerebral treatment, 21 d
Method: After striatal injection of C6 cells and intracerebral treatment with pio or vehicle for 21 d, the animals were examined for neurological deficits. Neurological function was quantified by evaluation of hemiparesis, cycling and immobility (J Neurosurg 1986; 65: 222-9, Stroke 1999; 30: 427-31; discussion 431-2). Hemiparesis was assessed by forelimb flexion and immobility by the loss of ability to walk a distance greater than 15 cm. One point was given for each negative finding and total score then computed. The scores of the treated and untreated group were averaged. A blinded observer performed neurological examinations.

[2] = Daily body weight in C6 rat glioma model; type: in vivo; conditions: daily weighing; vehicle group lost weight significantly at 17 d
Method: Before implantation, 85-90% confluent C6 cells were trypsinized, rinsed with DMEM+10% fetal calf serum, and centrifuged at 1000 rpm for 4 min. The cell pellet was resuspended in DMEM and placed on ice. Concentration of viable cells was adjusted to 1×10^5 cells/1 μl of DMEM. Each rat was anesthetized and placed in a stereotactic frame (David Kopf Instruments, Tujunga, Calif., USA), a hole was drilled at AP 0.0, R -3.0 relative to bregma according to the stereotaxic atlas of […], 1963). Tumor cells were injected at a rate of 0.5 μl/s, using a 2 μl Hamilton (#2701) syringe (Reno, Nev., USA) with a 26 s-gauge needle mounted on a stereotactic holder at a depth of 5 mm. […] For intracerebral administration of pio/vehicle (DMSO), the tip of an Alzet-brain-infusion-kit (Cupertino, Calif., USA) was placed in a depth of 5 mm, connected to a 2ML4 Alzet osmotic pump (Cupertino, Calif., USA). Drug administration began 4 h after surgery. […] The pumps were filled with 20 μM pio solved in PBS or vehicle (DMSO, 0.1% final concentration) solved in PBS. Animals were randomly distributed in two groups, treated with pio filled pumps (n=26) or vehicle filled pumps (n=26). Thereafter skull was cleaned and the incision sutured. […] Control animals received Purina chow without additions. Rats were allowed free access to the chow. Tumors were allowed to grow and animals were weighed daily. […]

cleaved caspase-3 = test: Immunohistochemistry of cleaved caspase-3 in tumors, C6 rat glioma model; type: in vivo; conditions: 6 to 14 days of pio treatment, significant maximum at 9 d
Method: Frozen brain sections were first blocked with 5% normal goat serum or normal horse serum in PBS and subsequently incubated with rabbit anti-Ki-67 antibody (1:200 dilution), mouse anti-CS-56 (1:100 dilution), goat anti-MMP-9 (1:100 dilution) or rabbit anti-cleaved caspase-3 antibody (1:200 dilution) at 4° C. overnight. Sections were washed extensively with PBS before incubation with secondary antibodies. Incubation was carried at room temperature for 1 h. After washing with PBS three times, stained slides were mounted with PBS/glycerol (1:1) and viewed under a fluorescent microscope (Leica, Germany). […] The percentage of cleaved caspase-3 positive cells was assessed by counting the immunopositive cells in 1×10^3 tumor (DAPI stain) cells and statistically compared.

C6 glioma cells = test: Boyden chamber assay, C6 cell migration; type: cell-based, rat
Method: C6 cell migration in the presence or absence of pio was assessed using a Boyden chamber (AP48, NeuroProbe, Gaithersburg, Md., USA) with an 8 μm polycarbonate PVPF-filter (Osmonics, Minnetonka, Minn., USA). Cells were suspended in DMEM containing 2.5% fetal calf serum and pio at 30 μM or vehicle (DMSO). C6 glioma cells were pretreated for 24 h in the presence or absence of 30 μM pio. Cells (5×10^3 in 50 μl pio/medium or vehicle/medium) were then plated in the wells of the upper compartment of the chamber (6 well/condition), and the wells of the lower compartment were filled with DMEM. Incubation was performed at 37° C. in 5% CO2 for 4 h. After incubation, cells on the upper surface of the filter, which had not migrated, were gently scraped off, and the filters were then fixed in methanol and subsequently stained with DAPI (1:500 in PBS; Sigma, St. Louis, Mo., USA). The number of cells which migrated to the lower surface of the filter, was counted using public domain software NIH Image 1.62 (Bethesda, Md., USA). Total number of migrating cells under pio treated and vehicle treated condition were compared statistically. Experiments were performed in duplicate.

CS-56 = CS-56 expression in vivo (western blot, immunohistochemistry); set-up: species or system rat
Method: For western-blot analysis, tumor-containing hemispheres were homogenized in Tris-HCl [50 mM Tris-HCl pH8, 120 mM NaCl, 5 mM EDTA, 0.5% (v/v) NP-40, […] phenylmethylsulfonyl fluoride (PMSF)] and sonicated. Homogenates were collected by centrifugation (15 min 11000 g. 4° C.) and protein concentration in the supernatant was determined using the Bio-Rad Protein Assay (Biorad, Munich, Germany). Lysates (20-40 μg) were separated on a 7% (w/v) sodium dodecyl sulfate (SDS)-polyacrylamide gel under reducing conditions and transferred to a PVDF membrane (Millipore, Bedford, Mass., USA). Non-specific binding was blocked by incubation with 5% (w/v) skimmed milk in TBS for 2 h. Following incubation with the primary antibody overnight at 4° C. [rabbit anti-BAX 1:1000, rabbit anti-cleaved caspase-3 1:1000, mouse […] 1:1000, goat anti-MMP-9 1:1000 in TBS containing 0.1% (v/v) Tween 20] membranes were washed three times in TBS/Tween for 5 min and subsequently incubated for 120 min in TBS/Tween containing secondary peroxidase-conjugated antibody at room temperature (anti-rabbit 1:1000, anti-mouse 1:1000; anti-goat 1:1000 respectively). Signals were visualized by chemoluminescence (Pierce, Rockford, Ill., USA) and band intensities were quantified with NIH Image 1.62 software (Bethesda, Md., USA). Frozen brain sections were first blocked with 5% normal goat serum or normal horse serum in PBS and subsequently incubated with rabbit anti-Ki-67 antibody (1:200 dilution), mouse anti-CS-56 (1:100 dilution), goat anti-MMP-9 (1:100 dilution) or rabbit anti-cleaved caspase-3 antibody (1:200 dilution) at 4° C. overnight. Sections were washed extensively with PBS before incubation with secondary antibodies. Incubation was carried at room temperature for 1 h. After washing with PBS three times, stained slides were mounted with PBS/glycerol (1:1) and viewed under a fluorescent microscope (Leica, Germany).

## CCc1ccc(CCOc2ccc(CC3SC(=O)NC3=O)cc2)nc1 (stereo not drawn) [pioglitazone, 5-[4-[2-(5-ethylpyridin-2-yl)ethoxyl]benzyl]thiazolidine-2,4-dione]
Human glioma cells A172
  cellular viability, effect in words: significantly reduced cellular viability
[1]
  clinical outcome overall: significant better clinical outcome
[1]; versus vehicle
  cycling: no cycling
  hemiparesis: less hemiparesis
  immobility: less immobility
[2]
  weight loss: did not show any weight loss
Cleaved caspase-3
  cleaved caspase-3 expression (immunohistochemistry): elevated cleaved caspase-3 expression
C6 glioma cells; pio 30 μM during the Boyden chamber incubation, 4 h
  invasiveness of C6 cells (migrated cells): reduced the invasiveness of C6 cells significantly
C6 glioma cells; pretreatment of C6 cells for 24 h with 30 μM pio
  inhibition of invasiveness after pretreatment: further increased inhibition
CS-56; tissue lysates
  CS-56 expression (western blot): upregulation of CS-56 expression
  increase in CS-56 protein levels (densitometry): around 56%
CS-56; tumor margin towards healthy brain tissue
  CS-56 expression (immunohistochemistry): upregulation of CS-56
